# Measured values taken from paper PMC5321753, “Enhanced expression of ADCY1 underlies aberrant neuronal signalling and behaviour in a syndromic autism model” (Nature Communications, 2017).
# Tests used:
# WT and Fmr1 KO mice [1] = assay: Audiogenic seizures (AGS) induced by 120 dB sound; format: in vivo, mouse; conditions: NB001 1 mg kg^-1 IP; for % Clonic/tonic seizure / % Death / % Wild running: 1 h before testing, 120 dB
# Procedure: Audiogenic seizures (AGS) were examined with 21- to 24-day-old-mouse (7), as this phenotype is dependent on the age of the mouse and only detected in juvenile Frm1 KO mouse. Mouse was placed in a box (30 cm L × 17 cm W × 12 cm H) with a flat plastic lid. A personal alarm (Streetwise, item # SWPDAL) was taped to the lid of the box and wired to a DC power supply to keep the sound amplitude constant. The mouse was allowed to acclimatize to the box for 5 min, following which 120 dB sound was emitted from the alarm for 2 min. The number of mice undergoing seizure activity within the 2-min period was counted. Audiogenic seizures were classified into different stages: wild running, clonic/tonic seizure and death.
# (§1) NB001 was dissolved in water to give a 25 mM stock solution. The stock was diluted in saline and IP injected into mice at 1 mg kg^−1 body weight. In all cases, the drug was administered 1 h before testing. Control mice were treated similarly but injected with saline.
# (§2) To inhibit phosphodiesterase (PDE), rolipram was dissolved in 10% kolliphore and IP injected into mice at 0.5 or 0.03 mg kg^−1. The use of the higher dose (that is, 0.5 mg kg^−1) was to ensure sufficient inhibition of PDE[44][45]. […] Rolipram- or vehicle (10% kolliphore)-injected mice were examined with light/dark test and AGS 30 min after drug administration.
# [2] = Mouse liver microsome stability assay; format: in vitro ADME; conditions: incubation with liver microsomes, 0-60 min
# Procedure: (§3) Following IP injection of NB001 (20 mg kg^−1), mice were killed at various time points, and 0.5–0.8 ml of blood was drawn from a cardiac puncture into a 1 ml syringe, which was pre-treated with NaHeparin. The blood was collected into 1.5 ml microfuge tubes coated with NaHeparin and put on ice immediately. Samples were centrifuged at 15,000 r.p.m. for 15 min. Blood plasma was collected from the upper layer, leaving the blood cells in the tube. The plasma was frozen at −80 °C for later analysis. Brains were taken out and weighed immediately. Brains were frozen at −80 °C for later preparation and analysis. The samples were subjected to LC/MS/MS with Turbo-Ionspray Interface used in the positive ion-mode (Pharmacokinetics Core, University of Michigan). Mouse liver microsome stability assay was performed by the Pharmacokinetics Core at University of Michigan.
# Akt = assay: Immunoblot of phosphorylated and total Akt in hippocampus after i.p. injection; format: in vivo, mouse; conditions: acute NB001 1 mg kg^-1 IP, 1 h after injection
# Procedure: (§4) Hippocampal tissues were collected from 3-month-(+/−10 days) old mice. […] The primers used for Adcy1 were […] (forward) and […] (reverse). The protein levels in hippocampal tissues collected from mice were determined by western blot using anti-ADCY1 (Sigma, Cat # SAB4500146-100UG, 1:1,000 dilution), anti-p-ERK1/2 (Cell Signaling, Cat # 9101L, 1:1,000 dilution), anti-pAkt (Cell Signaling, Cat # 9271, 1:1,000 dilution), anti-pS6K1 (Cell Signaling, Cat # 9204L for the detection of phosphorylation at Thr421/Ser424, Cat # 9234S for the detection of phosphorylation at Thr389, 1:1,000 dilution), anti-ERK1/2 (Cell Signaling, Cat # 9102L, 1:1,000 dilution), anti-Akt (Cell Signaling, Cat # 9272S, 1:1,000 dilution), anti-S6K1 (Cell Signaling, Cat # 9202L, 1:1,000 dilution) and anti-β-actin antibody (Sigma, Cat # A5441; 1:5,000 dilution). Following incubations with infrared fluorescence (IRDye)-conjugated secondary antibodies (1:5,000, LI-COR Biosciences, Cat # 926–32211 and 926–68070), signals were detected using the Odyssey system (LI-COR Biosciences). The un-cropped western blots are shown in Supplementary Fig. 10.
# as §1
# ERK1/2 = assay: Immunoblot of phosphorylated and total ERK1/2 in hippocampus after i.p. injection; format: in vivo, mouse; conditions: NB001 1 mg kg^-1 IP
# Procedure: as §4, §1
# [3] = NB001 pharmacokinetic study, plasma and brain levels by LC/MS/MS; format: in vivo, mouse
# Procedure: as §3
# mice = assay: NB001 toxicology study (body weight, organ weight, histology); format: in vivo, mouse
# Procedure: Mice at 3 months (+/−10 days) of age were IP injected with NB001 twice daily at 50 mg kg^−1 for 2 weeks. Clinical observations were performed twice daily and body weights were measured on various days during the dosing regimen. At the end of the dosing period, mice were killed and blood was collected for clinical pathology (Diagnostic Center for Population and Animal Health, Michigan State University). The liver and kidney were collected and fixed in 10% buffered formalin (INVIVO facility at Michigan State University).
# WT and Fmr1 KO mice [4] = assay: Marble burying test; format: in vivo, mouse; conditions: NB001 1 mg kg^-1 IP, 1 h before testing
# Procedure: Repetitive behaviour was determined by the marble burying test as described. 3-month-(+/−10 days) old mouse was placed in a regular mouse cage filled with 7.6 cm-deep bedding for 1 h before the test. The mouse was then briefly removed from the testing box and 15 marbles were evenly arranged in a 5 × 3 pattern on the surface of the bedding. The mouse was reintroduced into the testing box and was allowed to bury marbles for 10 min. At the end of the testing period, the number of marbles that were fully buried, partially buried and left on the surface was counted.
# as §1
# WT and Fmr1 KO mice [5] = assay: Light/dark test; format: in vivo, mouse
# Procedure: Light/dark test was examined as described in our previous study. Light/dark test was performed using 3-month (+/−10 days) old mouse, which was first placed in the dark half of the chamber (Coulbourn Instruments). After 1 min of habituation, the trap door was opened and the mouse was allowed to move freely between the two chambers for 5 min. The time spent in each chamber and the number of entries into the lit side were recorded.
# as §1, §2
# S6K1 = assay: Immunoblot of phosphorylated and total S6K1 in hippocampus after i.p. injection; format: in vivo, mouse
# Procedure: as §4, §1
# ADCY1 = test system: ADCY1; design: method as in PMID 21228397; conditions: intact cells; cited from earlier work
# [6] = IP injection, 20 mg kg^-1, mice
# [7] = NB001 50 mg kg^-1 IP twice a day for 14 days
smiles,measurement,setting,value
"Nc1ncnc2c1ncn2CCNCCCCCO [NB001, 5-{[2-(6-amino-9H-purin-9-yl)ethyl]amino}-1-pentanol]",occurrence of AGS versus vehicle (saline)-injected controls,WT and Fmr1 KO mice [1]; Fmr1 KO mice,less occurrence
same,% Clonic/tonic seizure,WT and Fmr1 KO mice [1]; Fmr1 KO mice,5.8%
same,% Death,WT and Fmr1 KO mice [1]; Fmr1 KO mice,5.8%
same,% Wild running,WT and Fmr1 KO mice [1]; Fmr1 KO mice,35.2%
same,% Clonic/tonic seizure,WT and Fmr1 KO mice [1]; WT mice,0%
same,% Death,WT and Fmr1 KO mice [1]; WT mice,0%
same,% Wild running,WT and Fmr1 KO mice [1]; WT mice,0%
same,stability in mouse liver microsome assay,[2],stable and resistant to degradation
same,level of pAkt,Akt,not affected
same,elevated level of p-ERK1/2 in the hippocampus,"ERK1/2; Fmr1 KO mice, 1 h after injection, relative to WT levels",normalized
same,phosphorylation of ERK1/2 in WT mice,"ERK1/2; WT mice, hippocampus",did not cause measurable changes
same,absorption to plasma,[3]; [6],absorbed to the blood stream
same,distribution to brain,[3]; [6],distributed to the brain
same,blood-brain barrier crossing,[3]; conclusion from plasma/brain levels and ref 40,can cross the blood–brain barrier
same,body weight,mice; [7],did not affect
same,"weight of major organs including heart/lung, kidney and liver",mice; [7],did not affect
same,histopathology in kidney and liver,"mice; NB001 50 mg kg^-1 IP twice a day for 14 days, H&E staining",no significant sign of histopathology
same,side effects following two weeks of high dose administration,mice; NB001 50 mg kg^-1 twice a day for 14 days,no significant side effects
same,"marble burying behaviour, NB001-injected Fmr1 KO versus WT mice",WT and Fmr1 KO mice [4],comparable
same,"transition between the light and dark chambers, NB001-injected Fmr1 KO versus WT mice","WT and Fmr1 KO mice [5]; NB001 1 mg kg^-1 IP, 1 h before testing",comparable
same,"time spent in the lit chamber, difference between groups","WT and Fmr1 KO mice [5]; WT and Fmr1 KO mice, vehicle or 1 mg per kg NB001",not significant
same,elevated level of pS6K1 (at Thr421/Ser424) in the hippocampus,"S6K1; Fmr1 KO mice, NB001 1 mg kg^-1 IP, 1 h after injection, relative to WT levels",normalized
same,phosphorylation of S6K1 in WT mice,"S6K1; WT mice, NB001 1 mg kg^-1 IP, hippocampus",did not cause measurable changes
same,level of pS6K1 at PI3K target site Thr389,"S6K1; hippocampus, acute NB001 1 mg kg^-1 IP, 1 h after injection",not affected
same,inhibition of ADCY1 activity versus other types of adenylyl cyclases,ADCY1,preferentially inhibits ADCY1 activity over other types of adenylyl cyclases
